Measured values from the NIST ThermoML archive (doi:10.1016/j.fluid.2013.09.056).
± gives the expanded uncertainty stated by the source.

Details: Liquid, Closed cell (Static) method

CC(F)(F)F [1,1,1-trifluoroethane]
vapor or sublimation pressure (283.15 K): 838.6 ± 7.1 kPa
vapor or sublimation pressure (293.15 K): 1107.9 ± 7.2 kPa
vapor or sublimation pressure (303.15 K): 1435.2 ± 7.3 kPa
vapor or sublimation pressure (313.15 K): 1834 ± 7.5 kPa
vapor or sublimation pressure (323.15 K): 2309.7 ± 7.8 kPa

FC(C(F)(F)F)C(F)(F)F [1,1,1,2,3,3,3-heptafluoropropane]
vapor or sublimation pressure (283.15 K): 278.9 ± 7 kPa
vapor or sublimation pressure (293.15 K): 388 ± 7 kPa
vapor or sublimation pressure (303.15 K): 524.5 ± 7 kPa
vapor or sublimation pressure (313.15 K): 699 ± 7.1 kPa
vapor or sublimation pressure (323.15 K): 912.4 ± 7.1 kPa

FCC(F)(F)F [1,1,1,2-tetrafluoroethane]
vapor or sublimation pressure (283.15 K): 414 ± 7 kPa
vapor or sublimation pressure (293.15 K): 571.5 ± 7 kPa
vapor or sublimation pressure (303.15 K): 767 ± 7.1 kPa
vapor or sublimation pressure (313.15 K): 1013 ± 7.2 kPa
vapor or sublimation pressure (323.15 K): 1314.7 ± 7.3 kPa

C=C(F)C(F)(F)F [2,3,3,3-tetrafluoro-1-propene]
vapor or sublimation pressure (283.15 K): 436.5 ± 7 kPa
vapor or sublimation pressure (293.15 K): 591 ± 7.1 kPa
vapor or sublimation pressure (303.15 K): 780.5 ± 7.1 kPa
vapor or sublimation pressure (313.15 K): 1015.6 ± 7.2 kPa
vapor or sublimation pressure (323.15 K): 1300.7 ± 7.2 kPa
